Laboratory results from patent publication US20220117958A1, “COMPOSITIONS AND METHODS FOR INHIBITING ACSS2” (THE TRUSTEES OF THE UNIVERSITY OF PENNSYLVANIA, priority 2018, published 2022).
Values after ≈ are worked out from the molar mass of the structure shown. Values joined by “and” are separate entries in the source; they are usually repeats but may differ in a detail not shown here. Equal entries are not always repeated. Where two headings read alike, the source gives them in different places. Marks after values point to notes of the source that are not given here.

What was measured:
[1] = Turbidity-based aqueous solubility; assay type: physicochemical; conditions: aqueous solution (composition not given), kinetic from dmso stock, read-out: highest soluble concentration
Description: (§1) Table 20 provides results of in vitro and in vivo pharmacokinetics performed for each of the represented compounds.

[2] = Protein binding via Rapid Equilibrium Dialysis - plasma; assay type: in vitro ADME; conditions: Rat (SD) plasma, 2 μM
Description: as §1

[3] = Microsomal stability assay (half-life), human; assay type: in vitro ADME; conditions: Human microsomes, read-out: Microsomal stability T1/2
Description: as §1

[4] = Microsomal stability assay (half-life), mouse; assay type: in vitro ADME; conditions: Mouse (CD1) microsomes, read-out: Microsomal stability T1/2
Description: as §1

[5] = Microsomal stability assay (half-life), rat; assay type: in vitro ADME; conditions: Rat (SD) microsomes, read-out: Microsomal stability T1/2
Description: as §1

[6] = In vivo PK, oral gavage, plasma; parameters: species or system Rat (SD); conditions: for Plasma concentration, mean: Rat (SD), BQL = below quantitation limit (1.00 ng/mL); for Plasma concentration, mean / Plasma concentration, individual animal: PO 5 mg/kg
Description: as §1
(§2) Tables 4 and 5 depict the summary of rat plasma sample concentrations after administration of ADG I-204. FIG. 6 provides a summary of rat plasma and brain concentrations.

[7] = In vivo PK, IV dose, plasma; parameters: species or system Rat (SD); conditions: for Plasma concentration, mean / Plasma concentration, individual animal: IV 1 mg/kg
Description: as §1, §2

[8] = In vivo PK, IV dose, Terminal - brain (brain availability); parameters: species or system Rat (SD); conditions: for Brain concentration, mean / Brain concentration, individual animal: IV 1 mg/kg
Experimental: Table 3 and FIG. 5 depict the brain availability of ADG I-204, ADG I-205, ADG I-206, and ADG I-207 after IV administration of 1 mg/kg dose.

H3K9ac = assay: Western blot, differentiated CAD cell lysates, H3K9ac levels; assay type: cell-based; conditions: differentiated CAD cells, DMSO = 100.00%
Description: as §1

[9] = In vivo PK, oral gavage, plasma; parameters: species or system Rat (SD); conditions: Rat, PO 5 mg/kg, 24.0 hr; BQL limit 1.00 ng/mL; listed as AUG I-207, 5 mg/kg

solubility [1]: 5 µM (≈ 2.43 µg/mL)
Protein binding, plasma: % Protein free [2]: 0.9428 % Protein free
half-life at 2 μM [3]: 18.7 min
half-life at 2 μM [4]: 5.5 min
half-life at 2 μM [5]: 5.5 min
Plasma concentration, mean ([6]; 0.25 hr): BQL
Plasma concentration, mean ([6]; 0.5 hr): BQL
Plasma concentration, mean ([6]; 1 hr): BQL
Plasma concentration, mean ([6]; 4 hr): BQL
Plasma concentration, mean ([6]; 8 hr): BQL
Plasma concentration, mean ([6]; 24 hr): BQL
Plasma concentration, individual animal ([6]; Rat, 0.250 hr, BQL limit 1.00 ng/mL): BQL
Plasma concentration, individual animal ([6]; Rat, 0.500 hr, BQL limit 1.00 ng/mL): BQL
Plasma concentration, individual animal ([6]; Rat, 1.00 hr, BQL limit 1.00 ng/mL): BQL
Plasma concentration, individual animal ([6]; Rat, 4.00 hr, BQL limit 1.00 ng/mL): BQL
Plasma concentration, individual animal ([6]; Rat, 8.00 hr, BQL limit 1.00 ng/mL): BQL
concentration at 24 h ([6]; SD, rat, plasma, po, 5 mg/kg, Rat, 24.0 hr, BQL limit 1.00 ng/mL, read-out: Plasma concentration, individual animal): 1.18 ng/mL
Plasma concentration, mean ([7]; Rat (SD), 0.083 hr, terminal, listed as ADG I-207, 1 mg/kg): 1660*** ng/mL
Plasma concentration, mean ([7]; Rat (SD), 1 hr, terminal, listed as ADG I-207, 1 mg/kg): 55 ng/mL
Plasma concentration, mean ([7]; Rat (SD), 4 hr, terminal, listed as ADG I-207, 1 mg/kg): 1 ng/mL
Plasma concentration, mean ([7]; Rat (SD), 8 hr, terminal, listed as ADG I-207, 1 mg/kg): 1 ng/mL
Plasma concentration, mean ([7]; Rat (SD), 24 hr, terminal, BQL limit 1.00 ng/mL (ADG I-205: 2.00 ng/mL)): BQL
Plasma concentration, individual animal ([7]; Rat, 0.0830 hr, terminal, third animal received only 70% of the test article, listed as ADG I-207, 1 mg/kg): 1640 ng/mL and 2230 ng/mL and 1110 ng/mL
Plasma concentration, individual animal ([7]; Rat, 1.00 hr, terminal, listed as ADG I-207, 1 mg/kg): 70.3 ng/mL and 27.3 ng/mL and 65.8 ng/mL
Plasma concentration, individual animal ([7]; Rat, 4.00 hr, terminal, BQL limit 1.00 ng/mL (ADG I-205: 2.00 ng/mL), listed as ADG I-207, 1 mg/kg): BQL
Plasma concentration, individual animal ([7]; Rat, 8.00 hr, terminal, BQL limit 1.00 ng/mL (ADG I-205: 2.00 ng/mL), listed as ADG I-207, 1 mg/kg): BQL and 1.09 ng/mL
Plasma concentration, individual animal ([7]; Rat, 24.0 hr, terminal, BQL limit 1.00 ng/mL (ADG I-205: 2.00 ng/mL)): BQL
concentration at 0.083 h ([7]; SD, rat, plasma, iv, 1 mg/kg, Rat (SD), 0.083 hr, terminal, read-out: Plasma concentration, mean): 1660 ng/mL
concentration at 0.5 h ([7]; SD, rat, plasma, iv, 1 mg/kg, Rat (SD), 0.500 hr, not a terminal time point (animals 4, 5 and 6)): 608 ng/mL
concentration at 1 h ([7]; SD, rat, plasma, iv, 1 mg/kg, Rat (SD), 1 hr, terminal, read-out: Plasma concentration, mean): 54.5 ng/mL
concentration at 4 h ([7]; SD, rat, plasma, iv, 1 mg/kg, Rat (SD), 4 hr, terminal, read-out: Plasma concentration, mean): 1.37 ng/mL
concentration at 8 h ([7]; SD, rat, plasma, iv, 1 mg/kg, Rat (SD), 8 hr, terminal, read-out: Plasma concentration, mean): 1.05 ng/mL
concentration at 4 h ([7]; SD, rat, plasma, iv, 1 mg/kg, Rat, 4.00 hr, terminal, BQL limit 1.00 ng/mL (ADG I-205: 2.00 ng/mL), read-out: Plasma concentration, individual animal): 1.37 ng/mL
concentration at 8 h ([7]; SD, rat, plasma, iv, 1 mg/kg, Rat, 8.00 hr, terminal, BQL limit 1.00 ng/mL (ADG I-205: 2.00 ng/mL), read-out: Plasma concentration, individual animal): 1 ng/mL
Brain concentration, mean ([8]; Rat (SD), 1 hr, listed as ADG I-207, 1 mg/kg): 51 ng/g
Brain concentration, mean ([8]; Rat (SD), 4 hr, BQL limit 10.0 ng/g (204, 206), 20.0 ng/g (205, 207)): BQL
Brain concentration, mean ([8]; Rat (SD), 8 hr, BQL limit 10.0 ng/g (204, 206), 20.0 ng/g (205, 207)): BQL
Brain concentration, mean ([8]; Rat (SD), 24 hr, BQL limit 10.0 ng/g (204, 206), 20.0 ng/g (205, 207)): BQL
Brain concentration, individual animal ([8]; Rat, 0.0830 hr, third animal received only 70% of the test article, listed as ADG I-207, 1 mg/kg): 204 ng/g and 253 ng/g and 119*** ng/g
Brain concentration, individual animal ([8]; Rat, 1.00 hr, listed as ADG I-207, 1 mg/kg): 39.8 ng/g and 58.9 ng/g
Brain concentration, individual animal ([8]; Rat, 4.00 hr, BQL limit 10.0 ng/g (204, 206), 20.0 ng/g (205, 207)): BQL
Brain concentration, individual animal ([8]; Rat, 8.00 hr, BQL limit 10.0 ng/g (204, 206), 20.0 ng/g (205, 207)): BQL
Brain concentration, individual animal ([8]; Rat, 24.0 hr, BQL limit 10.0 ng/g (204, 206), 20.0 ng/g (205, 207)): BQL
concentration at 0.083 h ([8]; SD, rat, brain, iv, 1 mg/kg, Rat (SD), 0.083 hr): 192 ng/g
concentration at 1 h ([8]; SD, rat, brain, iv, 1 mg/kg, Rat (SD), 1 hr, read-out: Brain concentration, mean): 50.8 ng/g
concentration at 1 h ([8]; SD, rat, brain, iv, 1 mg/kg, Rat, 1.00 hr, read-out: Brain concentration, individual animal): 53.6 ng/g
Plasma concentration, individual animal [9]: BQL
SMILES: O=C(Nc1ccc2nc(-c3cccs3)c(-c3cccs3)nc2c1)NC12CC3CC(CC(C3)C1)C2 [ADG-207, 1-((1S,3s)-adamantan-1-yl)-3-(2,3-di(thiophen-2-yl)quinoxalin-6-yl)urea]
Plasma concentration, individual animal ([7]; Rat, 0.500 hr, not terminal (animals 4, 5 and 6), listed as ADG I-207, 1 mg/kg): 1560** ng/mL and 93.3 ng/mL and 170 ng/mL
H3K9ac levels normalized to H3 and DMSO control (H3K9ac; 1 uM): 57.45%
H3K9ac levels normalized to H3 and DMSO control (H3K9ac; 5 uM): 63.69%
H3K9ac levels normalized to H3 and DMSO control (H3K9ac; 10 uM): 72.97%
H3K9ac levels normalized to H3 and DMSO control (H3K9ac; 20 uM): 70.92%
H3K9ac levels normalized to H3 and DMSO control (H3K9ac; 50 uM): 116.85%
H3K9ac levels normalized to H3 and DMSO control (H3K9ac; 100 uM): 107.80%
